Here are results for 13 molecules from ChEMBL document CHEMBL1143555, “Development of low molecular weight HIV-1 protease dimerization inhibitors” (J Med Chem, 2005).

For test [1], the target named is Human immunodeficiency virus type 1 protease (Human immunodeficiency virus 1) (UniProt Q72874). In words: Percent inhibition of human immunodeficiency virus-1 protease after 1 uM treatment.
The target of test [2] is Human immunodeficiency virus type 1 protease (Human immunodeficiency virus 1, UniProt Q72874). In words: Inhibitory concentration against human immunodeficiency virus-1 protease; (competitive inhibitor).

`CCC(C)[C@@H](NC(=O)[C@@H](NC(=O)CCCCCCCCCCCCCCC(=O)N[C@H](CC(=O)N[C@@H](Cc1ccccc1)C(=O)O)C(N)=O)C(C)O)C(=O)Nc1ccc(C(N)=O)cc1` (stereo partly drawn) showed an inhibition in test [1] of 36%. On the same count and under the same terms, as for `CC[C@H](C)[C@@H](NC(=O)C(CC1CCCC1)NC(=O)CCCCCCCCCCCCCCC(=O)N[C@H](CC(=O)N[C@@H](Cc1ccccc1)C(=O)O)C(N)=O)C(=O)N[C@@H](Cc1ccccc1)C(N)=O` (stereo partly drawn), the figure is 13%; as for `CCCC(NC(=O)CCCCCCCCCCCCCCC(=O)N[C@H](CC(=O)N[C@@H](Cc1ccccc1)C(=O)O)C(N)=O)C(=O)N[C@@H](C(=O)N[C@@H](Cc1ccccc1)C(N)=O)[C@@H](C)CC` (stereo partly drawn), 14%. Molecule `CC(O)[C@H](NC(=O)CCCCCCCCCCCCCCC(=O)N[C@H](CC(=O)N[C@@H](Cc1ccccc1)C(=O)O)C(N)=O)C(=O)N[C@@H](Cc1ccccc1)C(N)=O` (stereo partly drawn) gave an IC50 in test [2] of 11 µM.

Turning to `CC[C@H](C)[C@@H](NC(=O)c1cccc(CNC(=O)CCCCCCCCCCCCCCC(=O)N[C@H](CC(=O)N[C@@H](Cc2ccccc2)C(=O)O)C(N)=O)c1)C(=O)N[C@@H](Cc1ccccc1)C(N)=O`, the inhibition in test [1] was determined as 10%. The same measure, in the same setting: under `CC[C@H](C)[C@@H](NC(=O)CCCCNC(=O)CCCCCCCCCCCCCCC(=O)N[C@H](CC(=O)N[C@@H](Cc1ccccc1)C(=O)O)C(N)=O)C(=O)N[C@@H](Cc1ccccc1)C(N)=O` stands 12%.

Take `CCC(C)[C@H](NC(=O)CCCCCCCCCCCCCCC(=O)N[C@@H](CC(N)=O)C(=O)NC(Cc1ccc(O)cc1)C(=O)O)C(=O)N[C@H](Cc1ccccc1)C(N)=O` (stereo partly drawn): the inhibition in test [1] is 15%. Still for that read-out and setting: as for `CCC(C)[C@@H](NC(=O)[C@@H](NC(=O)CCCCCCCCCCCCCCC(=O)N[C@H](CC(=O)N[C@@H](Cc1ccccc1)C(=O)O)C(N)=O)C(C)O)C(=O)NC(CC1CC1)C(N)=O` (stereo partly drawn), the figure is 21%; as for `CC(O)[C@H](NC(=O)CCCCCCCCCCCCCCC(=O)N[C@H](CC(=O)N[C@@H](Cc1ccccc1)C(=O)O)C(N)=O)C(=O)N[C@@H](C(=O)N[C@@H](Cc1ccccc1)C(N)=O)C1CCCCC1` (stereo partly drawn), 45%. Still for that read-out and setting: under `CCC(C)[C@@H](NC(=O)[C@@H](NC(=O)CCCCCCCCCCCCCCC(=O)N[C@H](CC(=O)N[C@@H](Cc1ccccc1)C(=O)O)C(N)=O)C(C)O)C(=O)NC(C(N)=O)c1ccccc1` (stereo partly drawn) stands 29%; under `CC[C@H](C)[C@@H](NC(=O)C(CC1CC1)NC(=O)CCCCCCCCCCCCCCC(=O)N[C@H](CC(=O)N[C@@H](Cc1ccccc1)C(=O)O)C(N)=O)C(=O)N[C@@H](Cc1ccccc1)C(N)=O` (stereo partly drawn), 32%. `CC(O)[C@H](NC(=O)CCCCCCCCCCCCCCC(=O)N[C@H](CC(=O)N[C@@H](Cc1ccccc1)C(=O)O)C(N)=O)C(=O)N[C@H](CC1CCCCC1)C(=O)N[C@@H](Cc1ccccc1)C(N)=O` (stereo partly drawn) came in with an inhibition in test [1] of 30%.

For `CCC(C)[C@@H](NC(=O)[C@@H](NC(=O)CCCCCCCCCCCCCCC(=O)N[C@H](CC(=O)N[C@@H](Cc1ccccc1)C(=O)O)C(N)=O)C(C)O)C(=O)NC(CO)C(N)=O` (stereo partly drawn), the inhibition in test [1] is 8%.

As a reminder, the inhibition is how much of the control response was suppressed. The low end stands for a weak effect, the high end for a strong effect. For orientation: IC50 means the concentration at which inhibition is half-maximal. Lower therefore signals inhibition by little substance.
